Experimental findings from US20190134005A1 (BioMarin Pharmaceutical Inc., priority 2016, published 2019) are described below.

A word on the IC50: it is the concentration at which inhibition is half-maximal.

A value given as a limit tells only on which side of the number the result lay.

In the first test the target is T1, human CGT (Homo sapiens, UniProt Q16880).
T1 sequence (Q16880 21-541): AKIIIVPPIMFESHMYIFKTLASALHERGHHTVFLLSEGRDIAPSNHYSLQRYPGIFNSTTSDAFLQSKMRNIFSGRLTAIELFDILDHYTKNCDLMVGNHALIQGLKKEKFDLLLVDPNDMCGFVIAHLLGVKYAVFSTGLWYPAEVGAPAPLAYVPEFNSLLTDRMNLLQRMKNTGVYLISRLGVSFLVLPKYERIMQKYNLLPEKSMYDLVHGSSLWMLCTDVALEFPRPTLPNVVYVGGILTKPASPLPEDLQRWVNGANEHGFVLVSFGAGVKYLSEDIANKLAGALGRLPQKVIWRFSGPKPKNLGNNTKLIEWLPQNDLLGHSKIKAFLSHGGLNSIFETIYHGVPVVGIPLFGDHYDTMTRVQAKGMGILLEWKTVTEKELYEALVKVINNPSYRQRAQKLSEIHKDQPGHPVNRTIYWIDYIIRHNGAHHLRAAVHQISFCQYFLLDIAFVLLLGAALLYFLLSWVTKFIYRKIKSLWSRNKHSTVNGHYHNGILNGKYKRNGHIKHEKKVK
As to the kind of experiment: Assay 1: CGT Enzymatic Assay (RapidFire/MS/MS, 0.01% Tween 80). Format: biochemical.
Details: not given
Regarding `O=C1N(c2ccc(Br)cc2)C(=O)C(O)(c2cc3ccccc3[nH]2)N1c1ccc(Br)cc1` (stereo not shown) [Example 210, 1,3-bis(4-bromophenyl)-5-hydroxy-5-(1H-indol-2-yl)imidazolidine-2,4-dione], the half-maximal inhibitory concentration (IC50) was in the range of 10000 to 50000 nM.

The test is the same for the next values; noted with them: Table 1, Compounds of Formula (I) and Formula (II); CGT enzymatic assay, C6-NBD-dihydro-galactosylceramide readout; read-out: IC50.
Take `CCC1(CC)N(c2ccc(Cl)cc2)C(=O)N(c2ccc(Cl)cc2)C1(O)c1cccc(C#N)c1` (stereo not shown) [Example 321, 3-(1,3-bis(4-chlorophenyl)-5,5-diethyl-4-hydroxy-2-oxoimidazolidin-4-yl)benzonitrile]: the IC50 is below 1000 nM. Still for that read-out and setting: in the case of `CC1(C)N(c2ccc(Cl)cc2)C(=O)N(c2ccc(C#N)cc2)C1(O)c1cccc(C#N)c1` (stereo not shown) [Example 323, 3-(1-(4-chlorophenyl)-3-(4-cyanophenyl)-4-hydroxy-5,5-dimethyl-2-oxoimidazolidin-4-yl)benzonitrile] it was below 1000 nM.

Still in this test, the particulars now being: Table 1, Compounds of Formula (I) and Formula (II); CGT enzymatic assay; read-out: IC50.
As to `O=C1N(c2ccc(Cl)cc2)[C@@]2(CCOC2)[C@](O)(c2cccc(OC(F)(F)F)c2)N1c1ccc(Cl)cc1` [Compound 234-3, (4R,5R)-1,3-bis(4-chlorophenyl)-4-hydroxy-4-(3-(trifluoromethoxy)phenyl)-7-oxa-1,3-diazaspiro[4.4]nonan-2-one], the IC50 was below 1000 nM.

In the case of `CCC1N(c2ccc(Cl)cc2)C(=O)N(c2ccc(Cl)cc2)C1(O)c1cccc(OC(F)(F)F)c1` (stereo not shown) [Compound 82, 1,3-bis(4-chlorophenyl)-5-ethyl-4-hydroxy-4-(3-(trifluoromethoxy)phenyl)imidazolidin-2-one], the IC50 was below 1000 nM.

On to `O=C1N(c2ccc(Cl)cc2)[C@@H](C2CCC2)C(O)(c2cccc(OC(F)(F)F)c2)N1c1ccc(Cl)cc1` (stereo partly drawn) [Example 191-1, (5S)-1,3-bis(4-chlorophenyl)-5-cyclobutyl-4-hydroxy-4-(3-(trifluoromethoxy)phenyl)imidazolidin-2-one], for which the IC50 was below 1000 nM.

Turning to `O=C1N(c2ccc(Br)cc2)CC(O)(c2cccc(C(F)(F)F)c2)N1c1ccc(Br)cc1` (stereo not shown) [Example 31, 1,3-bis(4-bromophenyl)-4-hydroxy-4-(3-(trifluoromethyl)phenyl)imidazolidin-2-one], the IC50 is below 1000 nM.

For `CC[C@@H]1N(c2ccc(Br)cc2)C(=O)N(c2ccc(Br)cc2)C1(O)c1ccccc1` (stereo partly shown) [Example 25-1], the IC50 is below 1000 nM. As for `O=C1N(c2ccc(Cl)cc2)C(=O)C(O)(c2ccccc2)N1c1ccc(Cl)cc1` (stereo not shown) [Compound 147, 1,3-bis(4-chlorophenyl)-5-hydroxy-5-phenylimidazolidine-2,4-dione], the IC50 lay within 10000 to 50000 nM. On the same count and under the same terms, in the case of `CC1(c2cccc(C(F)(F)F)c2)C(O)N(c2ccc(Cl)cc2)C(=O)N1c1ccc(Cl)cc1` (stereo not shown) [Example 190, 1,3-bis(4-chlorophenyl)-5-hydroxy-4-methyl-4-(3-(trifluoromethyl)phenyl)imidazolidin-2-one] it was below 1000 nM; in that of `CC[C@@H]1N(c2ccc(Cl)cc2)C(=O)N(c2ccc(Cl)cc2)C1(O)c1cccc(C(F)(F)F)c1` (stereo partly drawn) [Compound 80-1, (5S)-1,3-bis(4-chlorophenyl)-5-ethyl-4-hydroxy-4-(3-(trifluoromethyl)phenyl)imidazolidin-2-one], below 1000 nM. Still for that read-out and setting: as for `CC(=O)c1cccc(-c2c(C)n(-c3ccc(Cl)cc3)c(=O)n2-c2ccc(Cl)cc2)c1` [Compound 253, 4-(3-acetylphenyl)-1,3-bis(4-chlorophenyl)-5-methyl-1,3-dihydro-2H-imidazol-2-one], the figure is 1000 to 10000 nM; as for `O=C1N(c2ccccc2)C(=O)C(O)(c2ccc(OC3CC3)cc2)N1c1ccccc1` (stereo not shown) [Compound 156, 5-(4-cyclopropoxyphenyl)-5-hydroxy-1,3-diphenylimidazolidine-2,4-dione], above 50000 nM. On the same count and under the same terms, in the case of `O=C1N(c2ccc(Br)cc2)C(=O)C(O)(c2cccc3ccccc23)N1c1ccc(Br)cc1` (stereo not shown) [Example 195, 1,3-bis(4-bromophenyl)-5-hydroxy-5-(naphthalen-1-yl)imidazolidine-2,4-dione] it was above 50000 nM; in that of `CCC[C@H]1N(c2ccc(Br)cc2)C(=O)N(c2ccc(Br)cc2)C1(O)c1cccc(C)c1` (stereo partly drawn) [Compound 96-2, (5R)-1,3-bis(4-bromophenyl)-4-hydroxy-5-propyl-4-(m-tolyl)imidazolidin-2-one], below 1000 nM; in that of `O=c1n(-c2ccc(Br)cc2)cc(-c2ccc[nH]2)n1-c1ccc(Br)cc1` [Compound 256, 1,3-bis(4-bromophenyl)-4-(1H-pyrrol-2-yl)-1,3-dihydro-2H-imidazol-2-one], above 50000 nM. As to `CCC[C@@H]1N(c2ccc(Br)cc2)C(=O)N(c2ccc(Br)cc2)C1(O)c1cccc(OC(F)(F)F)c1` (stereo partly drawn) [Compound 112-1, (5S)-1,3-bis(4-bromophenyl)-4-hydroxy-5-propyl-4-(3-(trifluoromethoxy)phenyl)imidazolidin-2-one], the IC50 is below 1000 nM. On to `CCC1N(c2ccc(Br)cc2)C(=O)N(c2ccc(Br)cc2)C1(O)c1ccccc1` (stereo not shown) [Example 25, 1,3-bis(4-bromophenyl)-5-ethyl-4-hydroxy-4-phenylimidazolidin-2-one], for which the IC50 is below 1000 nM. For the molecule `CC[C@H]1N(c2ccc(Br)cc2)C(=O)N(c2ccc(Br)cc2)C1(O)c1cccc(C(F)(F)F)c1` (stereo partly drawn) [Compound 67-2, (5R)-1,3-bis(4-bromophenyl)-5-ethyl-4-hydroxy-4-(3-(trifluoromethyl)phenyl)imidazolidin-2-one], the IC50 is below 1000 nM. Regarding `N#Cc1cccc(C2(O)N(c3ccc(Cl)cc3)C(=O)N(c3ccc(Cl)cc3)[C@@]23CCOC3)c1` (stereo partly drawn) [Example 221-2, 3-((5R)-1,3-bis(4-chlorophenyl)-4-hydroxy-2-oxo-7-oxa-1,3-diazaspiro[4.4]nonan-4-yl)benzonitrile], the IC50 is below 1000 nM. Consider `Cc1ccc(C2(O)CN(c3ccc(Br)cc3)C(=O)N2c2ccc(Br)cc2)cc1` (stereo not shown) [Example 23, 1,3-bis(4-bromophenyl)-4-hydroxy-4-(p-tolyl)imidazolidin-2-one], for which the concentration for half-maximal inhibition (IC50) is above 50000 nM.

With `CC[C@H]1N(c2ccc(Cl)cc2)C(=O)N(c2ccc(Cl)cc2)C1(O)c1cccc(C#N)c1` (single isomer, unassigned) [Compound 106-2], the IC50 is below 1000 nM. The same measure, in the same setting: in the case of `O=C1N(c2ccc(Cl)cc2)[C@@H](C2CC2)C(O)(c2cccc(OC(F)F)c2)N1c1ccc(Cl)cc1` (stereo partly drawn) [Compound 233-1, (5S)-1,3-bis(4-chlorophenyl)-5-cyclopropyl-4-(3-(difluoromethoxy)phenyl)-4-hydroxyimidazolidin-2-one] it was below 1000 nM; in that of `COc1cccc(C2(O)[C@H](C)N(c3ccc(Br)cc3)C(=O)N2c2ccc(Br)cc2)c1` (stereo partly drawn) [Compound 71-1, (5S)-1,3-bis(4-bromophenyl)-4-hydroxy-4-(3-methoxyphenyl)-5-methylimidazolidin-2-one], below 1000 nM; in that of `Cc1c(-c2cccc(Br)c2)n(-c2ccc(Cl)cc2)c(=O)n1-c1ccc(Cl)cc1` [Compound 246, 4-(3-bromophenyl)-1,3-bis(4-chlorophenyl)-5-methyl-1,3-dihydro-2H-imidazol-2-one], below 1000 nM. The same measure, in the same setting: in the case of `C#Cc1cc(Cl)cc(C2(O)CN(c3ccc(Cl)cc3)C(=O)N2c2ccc(Cl)cc2)c1` (stereo not shown) [Compound 108, 4-(3-chloro-5-ethynylphenyl)-1,3-bis(4-chlorophenyl)-4-hydroxyimidazolidin-2-one] it was 1000 to 10000 nM; in that of `CCCC1N(c2ccc(Br)cc2)C(=O)N(c2ccc(Br)cc2)C1(O)c1ccccc1` (stereo not shown) [Compound 51], below 1000 nM. In the case of `O=C1N(c2ccc(Br)cc2)[C@H](C2CC2)C(O)(c2ccccc2)N1c1ccc(Br)cc1` (stereo partly drawn) [Compound 115-2, (5R)-1,3-bis(4-bromophenyl)-5-cyclopropyl-4-hydroxy-4-phenylimidazolidin-2-one], the IC50 was below 1000 nM.

As to `O=C1N(c2ccc(Br)cc2)C(=O)C(O)(c2ccc(OC3CCC3)cc2)N1c1ccc(Br)cc1` (stereo not shown) [Example 174, 1,3-bis(4-bromophenyl)-5-(4-cyclobutoxyphenyl)-5-hydroxyimidazolidine-2,4-dione], the IC50 was above 50000 nM. In the case of `O=C1N(c2ccc(Br)cc2)CC(O)(c2ccc3ccccc3c2)N1c1ccc(Br)cc1` (stereo not shown) [Example 24, 1,3-bis(4-bromophenyl)-4-hydroxy-4-(naphthalen-2-yl)imidazolidin-2-one], the IC50 was above 50000 nM.

For the molecule `CCCCCCCCC1(O)C(=O)N(c2ccc(Br)cc2)C(=O)N1c1ccc(Br)cc1` (stereo not shown) [Example 199, 1,3-bis(4-bromophenyl)-5-hydroxy-5-octylimidazolidine-2,4-dione], the IC50 is above 50000 nM. `CC1(C)N(c2ccc(Cl)cc2)C(=O)N(c2ccc(Cl)cc2)C1(O)c1cccc(OC(F)(F)F)c1` (stereo not shown) [Compound 133, 1,3-bis(4-chlorophenyl)-4-hydroxy-5,5-dimethyl-4-(3-(trifluoromethoxy)phenyl)imidazolidin-2-one]: the 50% inhibitory concentration (IC50) was below 1000 nM. Still for that read-out and setting: as for `O=C1N(c2ccc(Cl)cc2)C(C2CCC2)C(O)(c2cccc(OC(F)(F)F)c2)N1c1ccc(Cl)cc1` (stereo not shown) [Example 191, 1,3-bis(4-chlorophenyl)-5-cyclobutyl-4-hydroxy-4-(3-(trifluoromethoxy)phenyl)imidazolidin-2-one], the figure is below 1000 nM; as for `CC1N(c2ccc(Cl)cc2)C(=O)N(c2ccc(Cl)cc2)C1(O)c1cccc(C(C)(C)O)c1` (stereo not shown) [Compound 140, 1,3-bis(4-chlorophenyl)-4-hydroxy-4-(3-(2-hydroxypropan-2-yl)phenyl)-5-methylimidazolidin-2-one], 1000 to 10000 nM.
